Data: patent US20020123471A1, “LENTIVIRUS BASED VECTOR AND VECTOR SYSTEM” (priority 1997, published 2002)

Tested on: SIV[SIV] or SIV[MLV] vector particles
Assay: Inhibition of retroviral transfer of V1-luc into CEMx174 cells by reverse transcriptase inhibitor
Assay type: cell-based
Settings: Simian immunodeficiency virus, CEMx174, read-out: transfer of V1-luc inhibited

With `Cc1cn([C@H]2C[C@H](N=[N+]=[N-])[C@@H](CO)O2)c(=O)[nH]c1=O` [Zidovudine, 3′-azido-2′,3′-dideoxythymidine] the inhibition at 10 µM was 90%.
